Legend:
Type in all cases: cell-based, human
[1] = system: LNCaP cells; assay: Effect of butyrate on LNCaP cell growth; conditions: butyrate treatment, FIG. 10A
Experimental: (§1) FIGS. 10A and 10B show a pair of graphs illustrating the effects of sodium butyrate on LNCaP cell population (FIG. 10A) accompanied by a western blot showing resolution of NSE and RPTPα expression levels in LNCaP cells in the presence of increasing concentrations of sodium butyrate (FIG. 10B).
(§2) The regulation of RPTPα expression was then investigated in prostate cancer cells. The regulation of RPTPα expression was measured using butyrate since this pharmacological reagent induces cellular differentiation and has been utilized in the clinical trials for advanced prostate cancer therapy (29). […] This 160 kDa protein may represent an isoform of RPTPα, due to post-translational modifications (27,28).

[2] = system: NSE; assay: Western blot of NSE expression in butyrate-treated LNCaP cells; conditions: increasing concentrations of sodium butyrate, FIG. 10B
Experimental: as §1, §2

[3] = system: RPTPα; assay: Western blot of RPTPα expression in butyrate-treated LNCaP cells; conditions: increasing concentrations of sodium butyrate, FIG. 10B
Experimental: as §1, §2

[4] = system: ERK/MAPK; assay: Western blot of ERK/MAPK activation in NE-like subclone cells with MEK inhibitor; conditions: NE-like subclone cells (NE-1-3), FIG. 7B
From the text: (§3) FIGS. 7A-7C show three western blots. FIG. 7A is a western blot showing levels of MEK and phosphorylated MEK in LNCaP cells and three NE-like subclone cells, NE-1-3, NE-1-8 and NE-1-9. FIG. 7B is a western blot showing inhibition of ERK activation levels in the presence of the MEK inhibitor, PD098059, in NE-1-3 subclone cells. FIG. 7C is a western blot showing inhibition of NSE expression levels mediated by the MEK inhibitor, PD098059, in steroid-reduced medium.
(§4) To test the causal relationship of ERK/MAPK activation with NE-like transdifferentiation, MEKs, up-stream regulators of ERK/MAPK kinases, were examined to determine if they are also activated in the NE-like subclone cells.

[5] = system: NSE; assay: Induction of NE transdifferentiation (NSE expression, western blot) in LNCaP cells cultured in steroid-reduced condition; conditions: androgen-responsive LNCaP cells in steroid-reduced condition, FIG. 7C
From the text: as §3, §4

SMILES: CCCC(=O)[O-].[Na+] [Butyrate, sodium butyrate]
- growth of LNCaP cells [1]: growth suppression
- NSE protein expression [2]: elevated levels
- RPTPα protein expression [3]: elevated levels

SMILES: COc1cccc(-c2cc(=O)c3ccccc3o2)c1N [PD098059]
- activation of ERK/MAPK (phosphorylated ERK) [4]: effectively inhibited
- induction of NE transdifferentiation (NSE expression) [5]: abolished
